Assay results from ChEMBL document CHEMBL1201862, “PubChem BioAssay data set” (2004).
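Tested at 5 concentrations; 48 h exposure; 96-well plates; endpoints linearly interpolated, else capped at highest concentration. GI50 = concentration required for 50% inhibition of growth.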 Activity calls are given as the source filed them. Cut-off read from the data, not from the text of the source: active = GI50 up to about 1.1 µM and inactive = higher.

How the values were obtained:
Assay in all cases: NCI-60 cell line screen, 48 h
CAKI-1 = tested on: CAKI-1
RPMI-8226 = tested on: RPMI-8226
UACC-257 = tested on: UACC-257
OVCAR-8 = tested on: OVCAR-8
NCI-H522 = tested on: NCI-H522
IGROV-1 = tested on: IGROV-1
MOLT-4 = tested on: MOLT-4
SN12C = tested on: SN12C
MDA-MB-231 = tested on: MDA-MB-231
U-251 = tested on: U-251
SF-295 = tested on: SF-295
ACHN = tested on: ACHN
UACC-62 = tested on: UACC-62
UO-31 = tested on: UO-31
KM12 = tested on: KM12
SR = tested on: SR
NCI-H460 = tested on: NCI-H460
HT-29 = tested on: HT-29
NCI-H23 = tested on: NCI-H23
SW-620 = tested on: SW-620
NCI-H226 = tested on: NCI-H226
OVCAR-3 = tested on: OVCAR-3
HOP-62 = tested on: HOP-62
TK-10 = tested on: TK-10
A498 = tested on: A498
EKVX = tested on: EKVX
M14 = tested on: M14
PC-3 = tested on: PC-3
HOP-92 = tested on: HOP-92
SK-MEL-28 = tested on: SK-MEL-28
SK-OV-3 = tested on: SK-OV-3
BT-549 = tested on: BT-549
786-0 = tested on: 786-0
SF-268 = tested on: SF-268
Malme-3M = tested on: Malme-3M
LOX IMVI = tested on: LOX IMVI
K562 = tested on: K562
OVCAR-4 = tested on: OVCAR-4
HL-60 = tested on: HL-60
COLO 205 = tested on: COLO 205
SF-539 = tested on: SF-539
MCF7 = tested on: MCF7
SK-MEL-5 = tested on: SK-MEL-5
SNB-19 = tested on: SNB-19
DU-145 = tested on: DU-145
MDA-MB-435 = tested on: MDA-MB-435
HCT-116 = tested on: HCT-116
A549 = tested on: A549
CCRF-CEM = tested on: CCRF-CEM
Hs-578T = tested on: Hs-578T
HCT-15 = tested on: HCT-15
T47D = tested on: T47D
OVCAR-5 = tested on: OVCAR-5
SNB-75 = tested on: SNB-75
NCI/ADR-RES = tested on: NCI/ADR-RES
SK-MEL-2 = tested on: SK-MEL-2

COc1cc2nc(-c3cccs3)nc(Nc3cccc(Cl)c3)c2cc1OC
GI50 (CAKI-1): > 100 µM (inactive) | GI50 (RPMI-8226): 51.9 µM (inactive) | GI50 (UACC-257): > 100 µM (inactive) | GI50 (OVCAR-8): 37.8 µM (inactive) | GI50 (NCI-H522): 64.6 µM (inactive) | GI50 (IGROV-1): 61.1 µM (inactive) | GI50 (MOLT-4): 61.8 µM (inactive) | GI50 (SN12C): > 100 µM (inactive) | GI50 (MDA-MB-231): > 100 µM (inactive) | GI50 (U-251): 35.9 µM (inactive) | GI50 (SF-295): 22.5 µM (inactive) | GI50 (ACHN): 78.5 µM (inactive) | GI50 (UACC-62): > 100 µM (inactive) | GI50 (UO-31): > 100 µM (inactive) | GI50 (KM12): 43.2 µM (inactive) | GI50 (SR): 91.6 µM (inactive) | GI50 (NCI-H460): 42.8 µM (inactive) | GI50 (HT-29): > 100 µM (inactive) | GI50 (NCI-H23): 54.6 µM (inactive) | GI50 (SW-620): > 100 µM (inactive) | GI50 (NCI-H226): 50.6 µM (inactive) | GI50 (OVCAR-3): 52.8 µM (inactive) | GI50 (HOP-62): 20.3 µM (inactive) | GI50 (TK-10): 2.3 µM (inactive) | GI50 (A498): > 100 µM (inactive) | GI50 (EKVX): 88.9 µM (inactive) | GI50 (M14): 78.3 µM (inactive) | GI50 (PC-3): 21.1 µM (inactive) | GI50 (HOP-92): 55 µM (inactive) | GI50 (SK-MEL-28): 81.8 µM (inactive) | GI50 (SK-OV-3): 48.1 µM (inactive) | GI50 (BT-549): 59.2 µM (inactive) | GI50 (786-0): 53.2 µM (inactive) | GI50 (SF-268): 31.3 µM (inactive) | GI50 (Malme-3M): 27.7 µM (inactive) | GI50 (LOX IMVI): 42.6 µM (inactive) | GI50 (K562): > 100 µM (inactive) | GI50 (OVCAR-4): 28.8 µM (inactive) | GI50 (HL-60): > 100 µM (inactive) | GI50 (COLO 205): > 100 µM (inactive) | GI50 (SF-539): 37.2 µM (inactive) | GI50 (MCF7): 53.6 µM (inactive) | GI50 (SK-MEL-5): > 100 µM (inactive) | GI50 (SNB-19): 35.2 µM (inactive) | GI50 (DU-145): 90.6 µM (inactive) | GI50 (MDA-MB-435): 61.9 µM (inactive) | GI50 (HCT-116): > 100 µM (inactive) | GI50 (A549): 50.9 µM (inactive) | GI50 (CCRF-CEM): 34 µM (inactive) | GI50 (Hs-578T): 31.6 µM (inactive) | GI50 (HCT-15): 88.9 µM | GI50 (T47D): 44.6 µM (inactive) | GI50 (OVCAR-5): > 100 µM (inactive) | GI50 (SNB-75): 36.3 µM (inactive) | GI50 (NCI/ADR-RES): 48.2 µM (inactive) | GI50 (SK-MEL-2): > 100 µM (inactive)
